Consider 18 molecules from PubChem BioAssay AID256 (DTP/NCI, 2004).

The assay relates to CD2F1 mice, L1210 leukemia ip, survival T/C. Briefly: NCI In Vivo Anticancer Drug Screen. Data for tumor model L1210 Leukemia (intraperitoneal) in CD2F1 (CDF1) mice. As to conditions: higher = longer survival. In a few lines: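 Each value reflects a quotient of treated over vehicle control outcomes in mice with a transplanted tumor.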
Where [1] appears, read: endpoint: mean survival time, dose: 100.0 mg/kg/injection, schedule: Q04DX003 (ip), vehicle: saline with Tween-80.
[2] abbreviates: endpoint: mean survival time, dose: 200.0 mg/kg/injection, schedule: Q04DX003 (ip), vehicle: saline with Tween-80.
The mark [3] stands for this setting: endpoint: mean survival time, dose: 400.0 mg/kg/injection, schedule: Q04DX003 (ip), vehicle: saline with Tween-80.
Where [4] appears, read: endpoint: mean survival time, dose: 100.0 mg/kg/injection, schedule: Q01DX001 (ip), vehicle: saline with Tween-80.
Setting [5] is: endpoint: mean survival time, dose: 200.0 mg/kg/injection, schedule: Q01DX001 (ip), vehicle: saline with Tween-80.
The mark [6] stands for this setting: endpoint: mean survival time, dose: 400.0 mg/kg/injection, schedule: Q01DX001 (ip), vehicle: saline with Tween-80.
[7] abbreviates: endpoint: mean survival time, dose: 100.0 mg/kg/injection, schedule: Q04DX002 (ip), vehicle: saline with Tween-80.
[8] abbreviates: endpoint: mean survival time, dose: 400.0 mg/kg/injection, schedule: Q04DX002 (ip), vehicle: saline with Tween-80.
The mark [9] stands for this setting: endpoint: mean survival time, dose: 100.0 mg/kg/injection, schedule: Q01DX009 (ip), vehicle: saline with Tween-80.
Setting [10] is: endpoint: mean survival time, dose: 200.0 mg/kg/injection, schedule: Q01DX009 (ip), vehicle: saline with Tween-80.
The mark [11] stands for this setting: endpoint: mean survival time, dose: 400.0 mg/kg/injection, schedule: Q01DX009 (ip), vehicle: saline with Tween-80.

Values joined by “and” are separate entries in the source; they are usually repeats but may differ in a detail not shown here. Equal entries are not always repeated. Inconclusive results and toxic doses are left out.

With `CN[C@H]1CCc2cc(OC)c(OC)c(OC)c2-c2ccc(OC)c(=O)cc21`, the T/C was 113 % of control and 105 % of control (endpoint: mean survival time, dose: 0.63 mg/kg/injection, schedule: Q01DX009 (ip), vehicle: saline); 97 % of control and 101 % of control (endpoint: mean survival time, dose: 0.63 mg/kg/injection, schedule: Q01DX009 (ip), vehicle: water); 113 % of control and 116 % of control (endpoint: mean survival time, dose: 1.25 mg/kg/injection, schedule: Q01DX009 (ip), vehicle: saline); 118 % of control and 108 % of control (endpoint: mean survival time, dose: 1.25 mg/kg/injection, schedule: Q01DX009 (ip), vehicle: water); 121 % of control (endpoint: mean survival time, dose: 2.5 mg/kg/injection, schedule: Q01DX007 (ip), vehicle: saline); 121 % of control and 123 % of control and 124 % of control (endpoint: mean survival time, dose: 2.5 mg/kg/injection, schedule: Q01DX009 (ip), vehicle: saline). Further, the T/C (endpoint: mean survival time, dose: 2.5 mg/kg/injection, schedule: Q01DX009 (ip), vehicle: water) is 116 % of control and 107 % of control; the T/C (endpoint: mean survival time, dose: 2.5 mg/kg/injection, schedule: Q03DX003 (ip), vehicle: saline) is 102 % of control; the T/C (endpoint: mean survival time, dose: 2.5 mg/kg/injection, schedule: Q04DX003 (ip), vehicle: saline) was 95 % of control; the T/C (endpoint: mean survival time, dose: 5.0 mg/kg/injection, schedule: Q01DX007 (ip), vehicle: saline) is 122 % of control; the T/C (endpoint: mean survival time, dose: 5.0 mg/kg/injection, schedule: Q01DX009 (ip), vehicle: saline) is 120 % of control; the T/C (endpoint: mean survival time, dose: 5.0 mg/kg/injection, schedule: Q01DX009 (ip), vehicle: water) was 118 % of control. In addition, the T/C (endpoint: mean survival time, dose: 5.0 mg/kg/injection, schedule: Q03DX003 (ip), vehicle: saline) is 115 % of control; the T/C (endpoint: mean survival time, dose: 5.0 mg/kg/injection, schedule: Q04DX003 (ip), vehicle: saline) is 105 % of control; the T/C (endpoint: mean survival time, dose: 10.0 mg/kg/injection, schedule: Q01DX009 (ip), vehicle: water) is 124 % of control and 108 % of control; the T/C (endpoint: mean survival time, dose: 10.0 mg/kg/injection, schedule: Q04DX003 (ip), vehicle: saline) was 101 % of control; the T/C (endpoint: median survival time, dose: 0.63 mg/kg/injection, schedule: Q01DX009 (ip), vehicle: saline) was 114 % of control and 100 % of control; the T/C (endpoint: median survival time, dose: 1.25 mg/kg/injection, schedule: Q01DX009 (ip), vehicle: saline) is 114 % of control and 100 % of control. Moreover, the T/C runs as follows: (endpoint: median survival time, dose: 2.5 mg/kg/injection, schedule: Q01DX009 (ip), vehicle: saline) 121 % of control and 111 % of control; (endpoint: median survival time, dose: 5.0 mg/kg/injection, schedule: Q01DX009 (ip), vehicle: saline) 150 % of control.

As for `Cc1ccc(C)c(NC(=O)c2ccc(Cl)cc2Cl)c1`, the T/C runs as follows: under setting [1], 98 % of control; under setting [2], 98 % of control; under setting [3], 96 % of control.

As for `ONc1nc(NO)c2[nH]cnc2n1`, the T/C by setting is: (endpoint: mean survival time, dose: 2.3 mg/kg/injection, schedule: Q01DX001 (ip), vehicle: other) 124 % of control; (endpoint: mean survival time, dose: 3.5 mg/kg/injection, schedule: Q01DX001 (ip), vehicle: other) 122 % of control; (endpoint: mean survival time, dose: 8.0 mg/kg/injection, schedule: Q01DX001 (ip), vehicle: other) 160 % of control and 168 % of control; (endpoint: mean survival time, dose: 12.5 mg/kg/injection, schedule: Q01DX001 (ip), vehicle: other) 153 % of control; (endpoint: mean survival time, dose: 29.0 mg/kg/injection, schedule: Q01DX001 (ip), vehicle: other) 156 % of control; (endpoint: mean survival time, dose: 44.0 mg/kg/injection, schedule: Q01DX001 (ip), vehicle: other) 153 % of control and 172 % of control. For the same molecule, the T/C (endpoint: mean survival time, dose: 66.0 mg/kg/injection, schedule: Q01DX001 (ip), vehicle: other) was 190 % of control; the T/C (endpoint: mean survival time, dose: 100.0 mg/kg/injection, schedule: Q01DX001 (ip), vehicle: other) was 202 % of control; the T/C (endpoint: mean survival time, dose: 150.0 mg/kg/injection, schedule: Q01DX001 (ip), vehicle: other) is 182 % of control.

Take `CN(C)c1nc(Cl)cc2c1ncn2C1OC(CO)C(O)C1O` (centres undefined): the T/C (endpoint: mean survival time, dose: 100.0 mg/kg/injection, schedule: Q01DX005 (ip), vehicle: saline) was 117 % of control.

As for `CN(C=O)C(C(=O)Nc1cccc2c(OC(=O)C(N(C)C=O)(N(C)C=O)N(C)C=O)c(N=Nc3ccc(S(=O)(=O)Nc4nccs4)cc3)cc(N=Nc3ccc(S(=O)(=O)Nc4nccs4)cc3)c12)(N(C)C=O)N(C)C=O` (tested in a mixture with another compound), the T/C (endpoint: median survival time, dose: 12.0 mg/kg/injection, schedule: Q01DX009 (ip), vehicle: saline with Tween-80) was 95 % of control; the T/C (endpoint: median survival time, dose: 25.0 mg/kg/injection, schedule: Q01DX009 (ip), vehicle: saline with Tween-80) is 106 % of control; the T/C (endpoint: median survival time, dose: 50.0 mg/kg/injection, schedule: Q01DX009 (ip), vehicle: saline with Tween-80) is 95 % of control; the T/C (endpoint: median survival time, dose: 100.0 mg/kg/injection, schedule: Q01DX009 (ip), vehicle: saline with Tween-80) was 94 % of control; the T/C (endpoint: median survival time, dose: 200.0 mg/kg/injection, schedule: Q01DX009 (ip), vehicle: saline with Tween-80) was 97 % of control; the T/C (endpoint: median survival time, dose: 400.0 mg/kg/injection, schedule: Q01DX009 (ip), vehicle: saline with Tween-80) was 106 % of control.

Turning to `OCCN=Cc1c[nH]c2ccccc12`, the T/C reads like this: under setting [4], 95 % of control; under setting [5], 106 % of control; under setting [6], 103 % of control.

On to `CCCCS/C=C\C(=O)OCC`, for which the T/C was 102 % of control under setting [7] and 102 % of control under setting [8].

Take `CCN(CC)CCNc1ncnc(N)c1C(=C(C)C)c1ccc(Cl)cc1`: the T/C was 96 % of control (endpoint: mean survival time, dose: 50.0 mg/kg/injection, schedule: Q01DX009 (ip), vehicle: saline with Tween-80); 94 % of control under setting [4]; 96 % of control under setting [9]; 86 % of control under setting [5]; 87 % of control under setting [10].

For `CCN(CC)CCNc1cc2c3ccccc3ccc2c2ccccc12`, the T/C is, setting by setting: under setting [4], 88 % of control; under setting [5], 95 % of control; under setting [6], 100 % of control.

`O=C(NC(Cc1ccc(I)cc1)C(=O)O)c1ccc(Br)cc1` (centres undefined): the T/C runs as follows: (endpoint: median survival time, dose: 25.0 mg/kg/injection, schedule: Q01DX009 (ip), vehicle: sodium bicarbonate) 98 % of control; (endpoint: median survival time, dose: 50.0 mg/kg/injection, schedule: Q01DX009 (ip), vehicle: sodium bicarbonate) 101 % of control; (endpoint: median survival time, dose: 100.0 mg/kg/injection, schedule: Q01DX009 (ip), vehicle: sodium bicarbonate) 101 % of control; (endpoint: median survival time, dose: 200.0 mg/kg/injection, schedule: Q01DX009 (ip), vehicle: sodium bicarbonate) 96 % of control.

With `C/C=C/C=C(\CC)C(=O)OCC`, the T/C is 97 % of control under setting [4], 97 % of control under setting [5] and 86 % of control under setting [6].

Take `Cc1nc2c(c(-c3ccccc3)n1)Cc1c(ccc3ccccc13)O2`: the T/C by setting is: (endpoint: mean survival time, dose: 100.0 mg/kg/injection, schedule: Q01DX001 (ip), vehicle: saline) 92 % of control; (endpoint: mean survival time, dose: 200.0 mg/kg/injection, schedule: Q01DX001 (ip), vehicle: saline) 98 % of control; (endpoint: mean survival time, dose: 400.0 mg/kg/injection, schedule: Q01DX001 (ip), vehicle: saline) 103 % of control.

On to `CCOC(=O)/C(=C\c1ccccc1Cl)C(C)=O`, for which the T/C is, setting by setting: (endpoint: mean survival time, dose: 25.0 mg/kg/injection, schedule: Q04DX003 (ip), vehicle: saline with Tween-80) 103 % of control; (endpoint: mean survival time, dose: 50.0 mg/kg/injection, schedule: Q04DX003 (ip), vehicle: saline with Tween-80) 96 % of control; under setting [9], 103 % of control; under setting [1], 96 % of control; under setting [10], 108 % of control; under setting [2], 107 % of control. For the same molecule, the T/C under setting [11] is 87 % of control.

Turning to `Cc1cc(C)c(B(c2c(C)cc(C)cc2C)c2c(C)cc(C)cc2C)c(C)c1`, the T/C was 100 % of control under setting [9]; 94 % of control under setting [10]; 90 % of control under setting [2]; 94 % of control under setting [11]; 96 % of control under setting [3].

Regarding `CCCCCCCCC(=O)CCCC`, the T/C runs as follows: (endpoint: mean survival time, dose: 100.0 mg/kg/injection, schedule: Q04DX003 (ip), vehicle: saline) 102 % of control; (endpoint: mean survival time, dose: 200.0 mg/kg/injection, schedule: Q04DX003 (ip), vehicle: saline) 100 % of control; (endpoint: mean survival time, dose: 400.0 mg/kg/injection, schedule: Q04DX003 (ip), vehicle: saline) 98 % of control.

For `COc1ccc(C(C)N=CC(C)(C)C)cc1` (centres undefined), the T/C under setting [2] is 100 % of control and the T/C under setting [3] was 88 % of control.

For the molecule `CC1CNC(Cl)O1` (centres undefined), the T/C runs as follows: under setting [1], 87 % of control; under setting [2], 105 % of control.

Consider `O=C(O)c1cccc2c1oc1ccccc12`, for which the T/C is, setting by setting: under setting [7], 94 % of control; (endpoint: mean survival time, dose: 200.0 mg/kg/injection, schedule: Q04DX002 (ip), vehicle: saline with Tween-80) 94 % of control; under setting [8], 102 % of control.
